Test results published in USRE50096E1, “Nanoemulsion compositions of taxoid drugs, and methods for the use thereof to target cancer cells and cancer stem cells” (TargaGenix, Inc., priority 2016, dated 2024).
Like-named read-outs stand apart in the source and are kept apart here.

Tests used:
[1] = test system: H460 human non-small cell lung tumor xenograft; assay: H460 non-small cell lung tumor xenograft in SCID mice; conditions: for tumor growth delay: at (about) MTD
[2] = test system: human CFPAC-1 ductal pancreatic adenocarcinoma xenograft; assay: CFPAC-1 pancreatic adenocarcinoma xenograft in SCID mice; conditions: for tumor growth delay as compared to vehicles: mouse, in vivo
[3] = test system: paclitaxel-resistant, Pgp(+) DLD1 human colon tumor xenograft; assay: DLD1 human colon tumor xenograft in SCID mice
tubulin = conditions: cited from earlier work
[4] = test system: human PANC-1 pancreatic tumor xenograft; assay: PANC-1 pancreatic tumor xenograft in SCID mice; format: in vivo, RPCI SCID mice; conditions: for complete remissions: mouse, in vivo
Excerpt: This experiment compared a q7dx3 with a q3dx3 schedule for PX and DHA-SBT-1214 using a human PANC-1 pancreatic tumor xenograft in RPCI SCID mice.

CD133+ PPT2 cells = assay: Stemness gene expression in PPT2 cells (PCR array, Western blot); format: cell-based, human
Procedure: Experiments were carried out with a patient-derived cancer stem cell line for prostate cancer, PPT2 (Botchkina 2013, Rowehl 2014). The cell line PPT2 was generated from a patient-derived prostate cancer tumor. […] The PPT2 cell line was serially propagated as NOD/SCID mice tumor xenografts, floating 3D spheroids and type I collagen-adherent cultures. According to the ATCC report (ID number 002872), the PPT2 cells were unique human cells not contaminated with any known established cell lines. Although phenotype of the CSC-enriched cultures was dynamic due to the dual nature of the CSCs (i.e., ability to self-renew and to generate committed progenitors), the PPT2 cells retained a relatively stable phenotype, even up to 8 weeks after MACS-CD133^+ cell sorting and culturing on type I collagen coated surfaces in serum-free medium. […] Both nuclear and cytoplasmic fractions of the PPT2 cells expressed c-Myc, whereas other pluripotency markers (Oct-4 and Sox-2) were detected only in nuclear fraction. […]
To characterize possible drug induced alterations in stemness gene expression, CD133^+ PPT2 cells were analyzed before and after treatment with a combination of SBT-1214 and CMC 2.24, a chemically-modified curcumin. […]

[5] = test system: drug resistant (Pgp+) colon tumor xenografts; conditions: mouse, in vivo; cited from earlier work
[6] = test system: drug resistant cancer cells, expressing MDR phenotypes; conditions: cited from earlier work
HT29 spheroids = assay: Colon cancer stem cell 3D spheroids, HT29; format: cell-based, human
Procedure: (§1) In another example, stem-cell enriched populations of colon cancer cells were selected from three invasive colon cancer cell lines, HCT116, HT29, and DLD-1. The populations were grown as 3D multicellular spheroids.
HT29: ACAN, ALPI, BMP3, CD3D, CD4, CD8A, CD8B, CDH2, COL2A1, COL9A1, DHH, DLL1, DLL3, DTX1, FGF1, FGF3, FZD1, GDF2, IGF1, MME, MYOD, NCAM1, NEUROG2, S100B, SOX2, and TERT;

DLD-1 spheroids = assay: Colon cancer stem cell 3D spheroids, DLD-1; format: cell-based, human
Procedure: as §1
DLD-1: CD4, CDH2, COL1A1, DLL1, DTX1, IGF1, FGF3, FZD1, JAG1, KRT15, MSX1, NCAM1 and NOTCH1 (Botchkina, et al., 2010).

HCT116 spheroids = assay: Colon cancer stem cell 3D spheroids, HCT116; format: cell-based, human
Procedure: as §1
HCT116: SOX1, RPL13A, BMP1, BMP3, NEUROG2, GJB1, GJA1, ASCL2, CTNNA1, GDF2, ALPI, S100B, CD8B1, ACTB, CCND1, FGF1, PARD6A, DVL1, GDF3, ISL1, CD3D, MME, FGFR1, RB1, AIN1, ALDH1A1, CD8A, PPARD, FZD1, NUMB and ABCG2;

[7] = test system: H460 human non-small cell lung tumor xenograft; conditions: mouse, in vivo
[8] = 80 mg/kg dose on days 5, 8, and 11

Which results are given for CC(=O)O[C@H]1C(=O)[C@@]2(C)[C@H]([C@H](OC(=O)c3ccccc3)[C@]3(O)C[C@H](OC(=O)[C@H](O)[C@@H](NC(=O)c4ccccc4)c4ccccc4)C(C)=C1C3(C)C)[C@]1(OC(C)=O)CO[C@@H]1C[C@@H]2O [paclitaxel, reference compound]?
tumor growth delay [1]: 8 days; MTD ([1]; mouse, in vivo): 75 mg/kg total dose; tumor growth delay as compared to vehicles [2]: only minor tumor growth delay; efficacy against tumor xenograft ([3]; s.c. xenograft): totally ineffective; time to polymerize tubulin (tubulin): hours; complete remissions [4]: no complete remissions; tumor growth delay ([4]; q3dx3 schedule): 13 days; tumor growth delay ([4]; q7dx3 schedule): 18 days

Which “expression of p21 and p53” value (CD133+ PPT2 cells) does the source give for CC(=O)O[C@@]12CO[C@@H]1C[C@H](O)[C@@]1(C)C(=O)[C@H](OC(=O)C3CC3)C3=C(C)[C@@H](OC(=O)[C@H](O)[C@H](C=C(C)C)NC(=O)OC(C)(C)C)C[C@@](O)([C@@H](OC(=O)c4ccccc4)[C@H]21)C3(C)C [SBT-1214] here?
Its value is “induced expression”.

And the “c-Myc and Sox2 in nuclear extracts (Western blot)” value (CD133+ PPT2 cells; CD133+ and bulk PPT2 cells)?
The value was “moderate down-regulation”.

What about the tumor growth delay [1] of the same compound?
The tumor growth delay was 34 days.

And the MTD ([1]; mouse, in vivo)?
The MTD was ~120 mg/kg total dose.

And the “long-term regression and tumor growth delay” value [5]?
The value was 167 days.

And the tumor growth delay [5]?
Its tumor growth delay is > 187 days.

And the tumor regression [5]?
Its tumor regression is “complete regression in all surviving mice”.

What about the weight loss ([2]; until day 20, 120 mg/kg total dose) of the same compound?
Its weight loss is < 4%.

And the “time to polymerize tubulin” value (tubulin)?
Its value is “a matter of minutes”.

What about the “potency relative to paclitaxel” value [6] of the same compound?
The value was 2-3 orders of magnitude.

And the “growth of the secondary spheroids” value (HT29 spheroids; 100 nM for 48 h)?
The value was “marked suppression”.

What about the cytotoxicity in spheroids (HT29 spheroids; 3D multicellular spheroids) of the same compound?
The cytotoxicity in spheroids was “effectively induced cytotoxicity”.

And the stemness-associated genes (HT29 spheroids; gene list)?
Its stemness-associated genes is “downregulated”.

What about the “growth of the secondary spheroids” value (DLD-1 spheroids; 100 nM for 48 h) of the same compound?
The value was “marked suppression”.

And the cytotoxicity in spheroids (DLD-1 spheroids; 3D multicellular spheroids)?
Its cytotoxicity in spheroids is “effectively induced cytotoxicity”.

What about the stemness-associated genes (DLD-1 spheroids; gene list) of the same compound?
Its stemness-associated genes is “downregulated”.

And the “growth of the secondary spheroids” value (HCT116 spheroids; 100 nM for 48 h)?
The value was “marked suppression”.

And the cytotoxicity in spheroids (HCT116 spheroids; 3D multicellular spheroids)?
Its cytotoxicity in spheroids is “effectively induced cytotoxicity”.

And the stemness-associated genes (HCT116 spheroids; gene list)?
Its stemness-associated genes is “downregulated”.

For CC/C=C\C/C=C\C/C=C\C/C=C\C/C=C\C/C=C/CCC(=O)O[C@@H](C(=O)O[C@H]1C[C@@]2(O)[C@@H](OC(=O)c3ccccc3)C3[C@](C)(C(=O)[C@H](OC(C)=O)C(=C1C)C2(C)C)[C@@H](O)C[C@H]1OC[C@@]31OC(C)=O)[C@@H](NC(=O)c1ccccc1)c1ccccc1 (stereo partly shown) [DHA-paclitaxel, reference compound], which tumor growth delay [1] is on record?
The tumor growth delay was 3 days.

What about the “tumor growth delay as compared to vehicles” value [2] of the same compound?
The value was “only minor tumor growth delay”.

What about the MTD [7] of the same compound?
The MTD was 240 mg/kg total dose.

Which tumor growth delay [1] does the source give for CC/C=C\C/C=C\C/C=C\C/C=C\C/C=C\C/C=C\CCC(=O)O[C@@H](C(=O)O[C@H]1C[C@@]2(O)[C@@H](OC(=O)c3ccccc3)[C@@H]3[C@]4(OC(C)=O)CO[C@@H]4C[C@H](O)[C@@]3(C)C(=O)[C@H](OC(=O)C3CC3)C(=C1C)C2(C)C)[C@H](C=C(C)C)NC(=O)OC(C)(C)C [DHA-SBT-1214] here?
The tumor growth delay was 55 days.

And the MTD ([1]; mouse, in vivo)?
The MTD was ~240 mg/kg total dose.

What about the tolerability ([1]; mouse, in vivo) of the same compound?
Its tolerability is “clearly better tolerated than SBT-1214”.

What about the weight loss ([2]; 240 mg/kg or 300 mg/kg total dose) of the same compound?
The weight loss was “negligible”.

And the “complete regression of the DLD-1 tumor” value [3, 8]?
Its value is 5 of 5.

And the tumor growth delay [3, 8]?
Its tumor growth delay is > 187 days.

What about the “maximum tolerated dose (MTD)” value ([4]; 80 mg/kg x 3 inj) of the same compound?
The value was 240 mg/kg total dosage.

What about the toxic death ([4]; 300 mg/kg total dose) of the same compound?
Its toxic death is “one toxic death”.

And the tumor growth delay ([4]; both schedules, q7dx3 and q3dx3)?
Its tumor growth delay is > 90 days.

And the complete remissions [4]?
The complete remissions was “achieved complete remissions”.
